Assay results from US7625917B2, “Thiolesters and uses thereof” (priority 1998, dated 2009).
Like-named read-outs stand apart in the source and are kept apart here.

Columns and labels:
[1] = biological target: T1, recombinant HIV-1 reverse transcriptase (Human immunodeficiency virus type 1 group M subtype B, UniProt P03366); test: HIV-1 reverse transcriptase assay (rAdT and rCdG template/primer); assay type: biochemical
T1 construct: recombinant HIV-1 reverse transcriptase; S. Hughes, ABL Basic Research NCI-FCRDC, Frederick Md
Description: (§1) The 5-bromovaleroyl thioester, compound 44, and two 5-pyridiniovaleroyl thioesters, compounds 45and 47, were analyzed in mechanistic and target-based assays. […] Assays for activity against HIV-1 reverse transcriptase rAdT (template/primer) and rCdG (template/primer) using recombinant HIV-1 reverse transcriptase (S. Hughes, ABL Basic Research NCI-FCRDC, Frederick Md.) were performed as described by Rice (1997) supra. Substrate cleavage of recombinant HIV-1 protease in the presence of test compounds using an HPLC-based methodology with the artificial substrate Ala-Ser-Glu-Asn-Try-Pro-Ile-Val-amide (Multiple Peptide Systems, San Diego Calif.) was performed as described by Rice (1997) supra. The ability of recombinant HIV-1 integrase (S. Hughes, ABL Basic Research NCI-FCRDC, Frederick Md.) to carry out 3′ processing and strand transfer activities in the presence of test compounds was performed as described by Buckheit (1994) AIDS Res. Hum. Retroviruses 10:1497-1506, and Turpin (1998) Antimicrob. Agents Chemother. 42: 487-494.

[2] = biological target: T2, recombinant HIV-1 protease (Human immunodeficiency virus type 1 group M subtype B, UniProt P03366); test: HIV-1 protease substrate cleavage (HPLC) assay; assay type: biochemical
T2 construct: recombinant HIV-1 protease
Description: as §1

[3] = test system: CEM-SS cells; test: cells; assay type: cell-based; conditions: for IC50: 50% cytotoxicity, read-out: IC50
[4] = test system: HIV-1NL4-3; test: Virucidal (viral inactivation) assay on MAGI-CCR-5 cells; assay type: cell-based
Description: The cell-based p24 attachment assay was performed as described in Rice (1995) Science 270:1194-1197. Viral inactivation assays were carried out as described in Rice (1995) Science 270:1194-1197, and Turpin (1997) supra, with minor modifications. Briefly, MAGI-CCR-5 cells were plated (4×10^4 cells per well) in flat bottomed 2-cm well plates for 24 h, after which the culture media was removed and compound-treated virus was added. The virus used was obtained by transient transfection of pNL4-3 into HeLa cells yielding the replication competent NL4-3 virus. Virus containing supernatants were treated for 2 h at 37° C. after which residual compound was removed by centrifugation (18,000×g, 1 h, 4° C.). Virus pellets were resuspended and placed on the MAGI-CCR-5 monolayers and cultured for 48 h. Monolayers were fixed and stained with X-gal solution and blue cells counted.
NCp7 cross-linking is associated with viral inactivation. Whether the ability to crosslink the nucleocapsid protein, as determined by Western blotting, correlated with the ability to inactivate the viruses was tested in a virucidal assay. Virus stocks of HIV-1NL4-3 were incubated with various thiolester compounds. The virus was obtained by transient transfection of a replication-competent pNL4-3 plasmid into HeLa cells. Residual thiolester was removed by centrifugation. […]

[5] = test system: HIV-1RF; test: XTT cytoprotection assay (antiviral activity); assay type: cell-based

For `CC(=O)NS(=O)(=O)c1ccc(NC(=O)c2ccccc2SC(=O)CCCCBr)cc1` [Compound 44, N-[2-(5-bromovaleroylthio)benzoyl]sulfacetamide], the “inhibition of HIV-1 reverse transcriptase (in words)” value [1] was “did not inhibit”, the “inhibition of HIV-1 protease (in words)” value [2] was “did not inhibit” and the IC50 ([3]; Table 5) was 184.5 µM.

In the case of `O=C(CCCC[n+]1ccccc1)Sc1ccccc1C(=O)Nc1ccc(S(=O)(=O)c2ccc([N+](=O)[O-])cc2)cc1` [Compound 47], the “potency at inactivating virus vs compounds 44 and 45” value [4] is reported as “approximately 6 fold”, the IC50 [1] is reported as over 100 µM and the “inhibition of HIV-1 reverse transcriptase (in words)” value [1] is reported as “did not inhibit”. For the same compound, the IC50 ([1]; read-out: Reverse transcriptase rCdG I50, Table 7, rCdG template/primer, high dose test 100 μM) was over 100 µM, the IC50 [2] was over 100 µM and the “inhibition of HIV-1 protease (in words)” value [2] was “did not inhibit”.

With `O=C(O)CCCC[n+]1ccccc1.[Br-]` [Compound 53, 5-pyridiniovaleric acid] the “virucidal activity (in words)” value [4] was “Neither intravirion cross-linkage of NCp7 nor virucidal activity were detected”, the IC50 ([3]; Homo sapiens, CEM-SS, Table 6) was over 316 µM and the “antiviral activity (in words)” value [5] was “without antiviral activity”. It also gave an EC50 ([5]; Human immunodeficiency virus 1, Table 6, read-out: EC50 %) of over 316 µM.

In the case of `CC(=O)NS(=O)(=O)c1ccc(NC(=O)c2ccccc2SC(=O)CCCC[n+]2ccccc2)cc1` [Compound 45, N-[2-(5-pyridinio-valeroylthio)benzoyl]sulfacetamide bromide], the “inhibition of HIV-1 reverse transcriptase (in words)” value [1] is reported as “did not inhibit”, the “inhibition of HIV-1 protease (in words)” value [2] is reported as “did not inhibit” and the IC50 ([3]; Table 5) is reported as over 316 µM. For the same compound, the IC50 ([3]; Table 10) was over 316 µM and the “cellular toxicity (in words)” value ([3]; high test dose of 316 μM) was “no toxicity”.
